Assay results published in US9518283B1, “Selective enrichment media and uses thereof” (priority 2012, dated 2016).

How the values were obtained:
[1] = test system: Shiga toxin-producing E. coli and Salmonella; type: cell-based
[2] = test system: non-Salmonella gram negative species; test: Media formulations / selective agents tested against competitor species; type: cell-based
Description: Several media formulations were tested for permitting growth of Salmonella while inhibiting growth of non-Salmonella species. […] To minimize the potential of such environmental microflora to contribute to false positive reactions in selective indicator media, flavonoid compounds were investigated. Myricetin was tested as a potential suitable inhibitor for at least some of these gram negative species.

Question: With `CCN(CC)c1ccc(C(=C2C=CC(=[N+](CC)CC)C=C2)c2ccccc2)cc1` [Brilliant green] as the compound, how does the “effect against Shiga toxin-producing E. coli (or Salmonella)” value [1] read?
Answer: Its value is “no effect”.

Question: For `O=c1c(O)c(-c2cc(O)c(O)c(O)c2)oc2cc(O)cc(O)c12` [Myricetin], which effectiveness as inhibitor ([2]; Citrobacter and E. coli inactive isolates) is on record?
Answer: The effectiveness as inhibitor was “of little use”.

Question: What about the inhibition ([2]; Enterobacter and Klebsiella spp.) of the same compound?
Answer: The inhibition was “inhibits”.

Question: And the effectiveness as inhibitor ([2]; K. oxytoca and E. aerogenes)?
Answer: The effectiveness as inhibitor was “effective”.

Question: Which “effectiveness against Shiga toxin-producing E. coli and Salmonella” value [1] does the source give for `O=C1CN(N=Cc2ccc([N+](=O)[O-])o2)C(=O)N1` [nitrofurantoin, 1-[[(5-Nitro-2-furanyl)methylene]amino]-2,4-imidazolidinedione] here?
Answer: Its value is “surprisingly ineffective”.
